ROK activity data for 22 compounds are collected here from patent US20080194584A1, “Nitrogen Heteroaromatic Compounds Which Bind To The Active Site Of Protein Kinase Enzymes” (priority 2004, published 2008).

In the experiment the test system is Rho kinase (ROK, ROCK). Kind of experiment: Rho kinase inhibitory activity (ROK activity). It counts as biochemical. Also on record: key: +: active; ++: more active; +++: very active. The conditions noted are these: assays conducted at 1-100 μM.

SMILES strings stand for the structures.

For the compound `O=C(Cc1ccc(Cl)cc1)Nc1cncc(-c2ccncc2)c1` [Example 1, N-[3,4′]Bipyridinyl-5-yl-2-(4-chloro-phenyl)-acetamide], the ROK activity result was “+”. Under “listed as N-[3,4′]Bipyridinyl-5-yl-2-(4-chloro-phenyl)-acetamide”, the ROK activity entry is on record as “++”.
`Fc1cc(CNc2cccc(-c3ccncc3)c2)ccc1Cl` [Example 2, (4-Chloro-3-fluoro-benzyl)-(3-pyridin-4-yl-phenyl)-amine]: the ROK activity entry is reported as “+++”.
As for `Fc1cc(CNc2cncc(-c3ccncc3F)c2)ccc1Cl` [Example 3, (4-Chloro-3-fluoro-benzyl)-(3′-fluoro-[3,4′]bipyridinyl-5-yl)-amine], the ROK activity entry is on record as “+++”.
`Fc1cc(CNc2cncc(-c3ccnc(Cl)c3)c2)ccc1Cl` [Example 4, (2′-Chloro-[3,4′]bipyridinyl-5-yl)-(4-chloro-3-fluoro-benzyl)-amine]: the ROK activity result is reported as “+”.
For `Fc1cc(CNc2cncc(-c3ccncc3Cl)c2)ccc1Cl` [Example 5, (3′-Chloro-[3,4′]bipyridinyl-5-yl)-(4-chloro-3-fluoro-benzyl)-amine], the ROK activity entry was “+++”.
As to `Fc1cc(CNc2cncc(-c3ccnc(Cl)c3Cl)c2)ccc1Cl` [Example 6, (4-Chloro-3-fluoro-benzyl)-(2′,3′-dichloro-[3,4′]bipyridinyl-5-yl)-amine], the ROK activity result was “+”.
As to `Fc1cc(CNc2cncc(-c3cccc4ncccc34)c2)ccc1Cl` [Example 7, (4-Chloro-3-fluoro-benzyl)-(5-quinolin-5-yl-pyridin-3-yl)-amine], the ROK activity entry was “++”.
In the case of `Fc1cc(CNc2cncc(-c3ccnc(Cl)c3F)c2)ccc1Cl` [Example 8, (4-Chloro-3-fluoro-benzyl)-(2′-chloro-3′-fluoro-[3,4′]bipyridinyl-5-yl)-amine], the ROK activity result is recorded as “+”.
For the compound `c1ccc(CNc2cncc(-c3ccncc3)c2)cc1` [Example 9, Benzyl-[3,4′]bipyridinyl-5-yl-amine], the ROK activity entry was “+++”.
Turning to `Clc1cccc(Cl)c1CNc1cncc(-c2ccncc2)c1` [Example 10, [3,4′]Bipyridinyl-5-yl-(2,6-dichloro-benzyl)-amine], the ROK activity entry was “+”.
In the case of `FC(F)(F)c1cc(Cl)ccc1CNc1cncc(-c2ccncc2)c1` [Example 11, [3,4′]Bipyridinyl-5-yl-(4-chloro-2-trifluoromethyl-benzyl)-amine], the ROK activity result was “++”.
On the same count and under the same terms, to `CC(O)CNc1cc(-c2cncc(NCc3ccc(Cl)cc3)c2)ccn1` (centres unmarked) [Example 12, 1-[5-(4-Chloro-benzylamino)-[3,4′]bipyridinyl-2′-ylamino]-propan-2-ol] belongs “+”; to `CC(C)(C)OC(=O)N1CCCC(CNc2cncc(-c3ccncc3)c2)C1` (centres unmarked) [Example 13, 3-([3,4′]Bipyridinyl-5-ylaminomethyl)-piperidine-1-carboxylic acid tert-butyl ester], “+”; to `CC(C)(C)OC(=O)N1CCC(CNc2cncc(-c3ccncc3)c2)CC1` [Example 14, 4-([3,4′]Bipyridinyl-5-ylaminomethyl)-piperidine-1-carboxylic acid tert-butyl ester], “+”.
On to `CC(C)(C)OC(=O)N1CCC(Nc2cncc(-c3ccncc3)c2)CC1` [Example 15, 4-([3,4′]Bipyridinyl-5-ylamino)-piperidine-1-carboxylic acid tert-butyl ester], for which the ROK activity result is on record as “+”.
For the compound `c1cc(-c2cncc(NCC3CCCNC3)c2)ccn1` (centres unmarked) [Example 16, [3,4′]Bipyridinyl-5-yl-piperidin-3-ylmethyl-amine], the ROK activity entry is “++”.
In the case of `FC(F)(F)c1cccc(CNc2cncc(-c3ccncc3)c2)c1` [Example 17, [3,4′]Bipyridinyl-5-yl-(3-trifluoromethyl-benzyl)-amine], the ROK activity result was “++”.
Same read-out and setting: to `FC(F)(F)c1ccc(CNc2cncc(-c3ccncc3)c2)cc1` [Example 18, [3,4′]Bipyridinyl-5-yl-(4-trifluoromethyl-benzyl)-amine] belongs “+++”.
Consider `Fc1cc(Cl)ccc1CNc1cncc(-c2ccncc2)c1` [Example 19, [3,4′]Bipyridinyl-5-yl-(4-chloro-2-fluoro-benzyl)-amine], for which the ROK activity entry is given as “+++”.
Turning to `O=C(Nc1cncc(-c2ccncc2)c1)c1ccc(Cl)cc1` [Example 20, N-[3,4′]Bipyridinyl-5-yl-4-chloro-benzamide], the ROK activity result is “+”.
As to `O=S(=O)(Nc1cncc(-c2ccncc2)c1)c1ccc(Cl)cc1` [Example 21, N-[3,4′]Bipyridinyl-5-yl-4-chloro-benzenesulfonamide], the ROK activity entry was “+”.
On the same count and under the same terms, the entry for `Fc1ccc(CNc2cncc(-c3ccncc3)c2)c(F)c1` [Example 22, [3,4′]Bipyridinyl-5-yl-(2,4-difluoro-benzyl)-amine] is “+++”.
